Values quoted from earlier work, collected in paper PMC3545186 (Biochemical Pharmacology, 2013).

Legend:
[1] = Asian breast cancer patient population; cited from earlier work
[2] = cited from earlier work

| Structure (SMILES) | exposure in individuals homozygous mutant for ABCB1 C1236T, G2677T/A and C3435T [1] | higher plasma concentrations in Abcb1a/1b knockout mice compared to wild type (WT) mice [2] [fold] |
| --- | --- | --- |
| COc1cccc2c1C(=O)c1c(O)c3c(c(O)c1C2=O)C[C@@](O)(C(=O)CO)C[C@@H]3O[C@H]1C[C@H](N)[C@H](O)[C@H](C)O1 [doxorubicin] | significantly higher exposure | – |
| COc1cc([C@@H]2c3cc4c(cc3[C@@H](O[C@@H]3O[C@@H]5CO[C@@H](C)O[C@H]5[C@H](O)[C@H]3O)[C@H]3COC(=O)[C@H]23)OCO4)cc(OC)c1O [etoposide] | – | 1.4 |
